Laboratory results: patent publication US4576952A, “Pyrazolopyridine derivatives and their use as anti-inflammatory and/or anti-allergic agents” (Beecham Group p.l.c., priority 1984, dated 1986)

Columns and labels:
cantharidin mouse ear = assay: Mouse Cantharidin Screen (topical anti-inflammatory activity, mouse ear); assay type: in vivo; settings: Mouse Cantharidin Data (24 h)
Description: Compounds were tested for topical anti-inflammatory activity in a cantharidin mouse ear screen, modified from Swingle et al [Swingle, K. F., Reiter, M. J. and Schwartzmiller, D. H., Arch. Int. Pharmacodyn., (1981), 254, 168-176].
25 μg cantharidin (in 10 μl THF/MeOH) was applied to both ears. Compound, in the same solvent, was applied at the same time, to the left ear only. Ears were weighed 24 h after cantharidin application. Percentage inhibition of the acute inflammatory swelling refers to the increase in weight of left ears (cantharidin plus compound) compared with solvent-treated negative controls, as a proportion of the increase in weight of right ears (cantharidin alone) over similar controls.

[1] = test system: mouse sensitised to oxazolone; assay: Mouse Oxazolone Screen (topical anti-inflammatory activity); assay type: in vivo; settings: ear, compound 1 h before oxazolone challenge, ear weights 24 h later, r^2 =0.96
Description: Compounds were tested for topical anti-inflammatory activity in a screen using the mouse sensitised to oxazolone, by a method modified from that of Dietrich and Hess [Dietrich, F. M., and Hess, R., Int. Arch. Allergy, (1970), 38, 246-259].
Mice were sensitised with oxazolone (2 mg in 20 μl ethanol) on a shaved area of the abdomen. Five days later, the animals received 10 μl THF/MeOH (1:1 v/v) on the right ear, and the test compound in the same solvent on the left ear. One hour later, the animals were challenged with 100 μg oxazolone in 10 μl acetone on each ear. Ear weights were measured 24 h later. Percentage inhibition of the inflammatory swelling refers to the increase in weight of left ears (oxazolone plus compound) compared with solvent-treated negative controls, as a proportion of the increase in weight of right ears (oxazolone alone) over similar controls.

5-Lipoxygenase = assay: RBL-1 5-Lipoxygenase Screen; assay type: biochemical; settings: 20 μM; 10,000 g supernatant from RBL-1 cells, 29° C.
Description: 5-Lipoxygenase enzyme was prepared as a 10,000 g supernatant from RBL-1 cells by the method of Jakschik [Jakschik, B. A., Sun, F. F., Lee, L. M. and Steinhoff, M. M., 1980, Biochem. Biophys. Res. Comm. 95, 103]. The 10,000 g supernatant was diluted with homogenization buffer to the equivalent of 1.5-2.5×10^7 cells ml^-1 and made 2 mM with respect to CaCl2. Aliquots of 0.5 ml were then dispensed into tubes, and incubated at 29° C. with 5 γl ethanol or compound in ethanol at the desired concentration for 2 min. Then [1-^14 C] arachidonic acid was added in buffer to give a final concentration of 6.3 μm and 0.2 μCi per incubation, and the reaction continued at 29° C. for 2 min. The reaction was terminated by adding 1 ml of acetone and cooling on ice, 0.5 ml of ice-cold saline and 10 μl of 2N formic acid were added, and the mixture was extracted with 2×2 ml of chloroform. The extract was stored under N2 at -20° C. until analysis by chromatography. Activity was measured as the percentage of total radioactivity found in 5-HETE and 5,12-diHETE, and inhibition calculated as the decrease in formation of the sum of these two species in compound-treated incubates relative to control incubates.

mice = settings: in mice; J. Heterocycl. Chem. 1971, 8(6), 1035-7; cited from earlier work

**Q.** Which “% Inhibition” value (cantharidin mouse ear; 300 μg/ear) does the source give for `Cc1cc(Nc2ccc(C#N)cc2)c2[nH]ncc2n1` [Example 1, 7-(4-Cyanoanilino)-5-methyl-1H-pyrazolo[4,3-b]pyridine] here?
**A.** Its value is 29%.

**Q.** With `Cc1cc(Nc2ccc(O)cc2)c2[nH]ncc2n1` [Example 4, 7-(4-Hydroxyanilino)-5-methyl-1H-pyrazolo[4,3-b]pyridine] as the compound, how does the ED50 [1] read?
**A.** The ED50 was 240 μg/ear.

**Q.** What about the “% Inhibition” value (cantharidin mouse ear; 200 μg/ear) of the same compound?
**A.** The value was 71%.

**Q.** What about the “inhibition (decrease in formation of 5-HETE and 5,12-diHETE)” value (5-Lipoxygenase) of the same compound?
**A.** The value was 66%.

**Q.** For `Cc1cc(Nc2cccc(O)c2)c2[nH]ncc2n1` [Example 5, 7-(3-Hydroxyanilino)-5-methyl-1H-pyrazolo[4.3-b]pyridine], which “% Inhibition” value (cantharidin mouse ear; 500 μg/ear) is on record?
**A.** Its value is 49%.

**Q.** For `Cc1cc(Nc2cccc(O)c2)c2c(cnn2C)n1` [Example 8, 1,5-Dimethyl-7-(3-hydroxyanilino)-1H-pyrazolo[4,3-b]pyridine], which “% Inhibition” value (cantharidin mouse ear; 278 μg/ear) is on record?
**A.** Its value is 31%.

**Q.** Which CNS antidepressant activity (mice) does the source give for `CC(=O)N(C(C)=O)c1cc(C)nc2c(C)n[nH]c12` [compound wherein R is NAc2] here?
**A.** The CNS antidepressant activity was “CNS antidepressant activity”.
